{
  "source": "paper PMC3693115",
  "about": "(Evidence-based Complementary and Alternative Medicine : eCAM, 2013)",
  "key": {"[1]": {"assay": "DPPH microplate assay (radical scavenging activity)", "conditions": "for Antioxidant IC50 (radical scavenging activity) / Antioxidant % inhibition (at 100 µg/mL): mean ± SEM (n = 3)", "method": "The antioxidant capacity was estimated in terms of radical scavenging activity according to a modified version of Brand-Williams method. Briefly, 100 μL of tested compounds at least 5 concentrations (dissolved in MeOH) was thoroughly mixed with 100 μL of freshly prepared DPPH solution (3 × 10^−5 M dissolved in MeOH). The reaction mixture was incubated for 30 min, then, the absorbance was read at 517 nm. Each assay was done in triplicate. IC50 value was determined by a linear regression analysis between the inhibition percentages against the concentration of tested compounds by using the Excel program."}, "[2]": {"system": "P19-derived neurons", "assay": "Neuritogenic assay (neurite number and length)", "format": "cell-based, Murine", "conditions": "1 nM, 24 h, 30 neurons measured", "method": "Murine P19 embryonic carcinoma cells were purchased from American Type Culture Collection (ATCC), USA. P19 cells were cultured as described by Mcburney in a slightly modification. In brief, the undifferentiated P19 cells were cultured as monolayers in α-MEM with 7.5% NCS, 2.5% FBS, and 1% antibiotics-antimycotic solution in a 25-cm^2 tissue culture flask, incubated at 37°C in a humidified atmosphere of 5% CO2. Cells in monolayer cultures were maintained in exponential growth phase by subculturing every 2 days until use.\nThe exponentially grown cultures indicated the cells density by trypan blue exclusion assay. Then, neuronal differentiation was induced by seeding 2 × 10^6 cells/mL cell in a 100 mm bacteriological grade culture dish containing 10 mL α-MEM supplemented with 5% FBS, 1% antibiotics-antimycotic solution, and 0.5 μM RA. […]\nThe assay was carried out with P19-derived neurons cultured in a poly-L-lysine-precoated 6-well plate. […] Average length and number of neurites of 30 neurons from the assay were measured. […] The data were expressed as the mean ± SEM from three independent experiments."}, "[3]": {"biological_target": "T1, AChE (purified enzyme from eel (Electrophorus electricus) type VI-s) (Electrophorus electricus, UniProt O42275)", "T1 construct": "a purified enzyme from eel (Electrophorus electricus) type VI-s; purchased Sigma (St. Louis, MO, USA); host or cells: purified from electric eel (natural source)", "T1 sequence (O42275 24-633)": "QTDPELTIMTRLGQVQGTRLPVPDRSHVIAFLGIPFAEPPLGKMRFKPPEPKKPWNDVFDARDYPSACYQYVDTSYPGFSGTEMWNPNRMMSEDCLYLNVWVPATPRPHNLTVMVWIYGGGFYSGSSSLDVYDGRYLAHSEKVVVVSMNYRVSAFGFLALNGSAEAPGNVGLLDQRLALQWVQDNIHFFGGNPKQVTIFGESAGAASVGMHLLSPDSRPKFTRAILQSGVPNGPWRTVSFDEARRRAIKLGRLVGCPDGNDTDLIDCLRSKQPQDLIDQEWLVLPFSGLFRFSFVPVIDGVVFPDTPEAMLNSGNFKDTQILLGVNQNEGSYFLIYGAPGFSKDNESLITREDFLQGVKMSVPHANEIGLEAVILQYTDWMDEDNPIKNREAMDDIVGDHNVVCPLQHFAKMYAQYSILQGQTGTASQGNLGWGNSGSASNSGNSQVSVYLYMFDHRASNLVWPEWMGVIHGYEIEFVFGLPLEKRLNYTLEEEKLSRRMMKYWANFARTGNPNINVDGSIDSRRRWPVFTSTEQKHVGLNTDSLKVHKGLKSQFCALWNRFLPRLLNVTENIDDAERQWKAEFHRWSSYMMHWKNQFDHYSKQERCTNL", "assay": "biochemical", "conditions": "mean ± SEM (n = 3); for inhibition at 100 µg/mL: read-out: Anticholinesterase (using purified enzyme from E. electricus) % inhibition (at 100 µg/mL)", "method": "Ellman's colorimetric method and modified method using 96-well microplates were used. Briefly, […], the product of hydrolysis reaction of ACh by cholinesterase, will react with DTNB to give 2-nitro-5-thiobenzoate (NTB^−), which ionizes to the NTB^2- dianion (in water at pH 8). This NTB^2- ion appears as yellow, which is quantified by measuring the absorbance of visible light at 405 nm. Briefly, tested compound was prepared in buffer a containing 50% MeOH. In a 96-well microtiter plate, 25 μL of tested sample was added to 200 μL reaction medium that consisted of 50 μL of buffer (50 mM TrisHCl pH 8.0) containing 0.1% BSA, 125 μL of 3 mM DTNB in buffer containing 0.1 M NaCl, and 0.02 M MgCl2·2H2O and 25 μL of 15 mM ATCI in deionized water. These contents were mixed and preincubated for 5 min at 37°C. The plate was pre-read at 405 nm using a microplate reader (TECAN M200, Switzerland). Thereafter, the reaction was initiated by the addition of 25 μL of AChE (0.22 U/mL). After 20 min incubation at 37°C, absorbance was measured again within 4–7 min. The reaction control consisted of reaction medium (200 μL), 25 μL of enzyme, and 25 μL of 50% MeOH in buffer. Two blanks were also carried out (with and without sample), and MeOH was used as the solvent control. […] Each assay was done in triplicate."}, "[4]": {"biological_target": "cellular AChE of SK-N-SH cells (Homo sapiens, UniProt P22303)", "sequence (P22303 32-614)": "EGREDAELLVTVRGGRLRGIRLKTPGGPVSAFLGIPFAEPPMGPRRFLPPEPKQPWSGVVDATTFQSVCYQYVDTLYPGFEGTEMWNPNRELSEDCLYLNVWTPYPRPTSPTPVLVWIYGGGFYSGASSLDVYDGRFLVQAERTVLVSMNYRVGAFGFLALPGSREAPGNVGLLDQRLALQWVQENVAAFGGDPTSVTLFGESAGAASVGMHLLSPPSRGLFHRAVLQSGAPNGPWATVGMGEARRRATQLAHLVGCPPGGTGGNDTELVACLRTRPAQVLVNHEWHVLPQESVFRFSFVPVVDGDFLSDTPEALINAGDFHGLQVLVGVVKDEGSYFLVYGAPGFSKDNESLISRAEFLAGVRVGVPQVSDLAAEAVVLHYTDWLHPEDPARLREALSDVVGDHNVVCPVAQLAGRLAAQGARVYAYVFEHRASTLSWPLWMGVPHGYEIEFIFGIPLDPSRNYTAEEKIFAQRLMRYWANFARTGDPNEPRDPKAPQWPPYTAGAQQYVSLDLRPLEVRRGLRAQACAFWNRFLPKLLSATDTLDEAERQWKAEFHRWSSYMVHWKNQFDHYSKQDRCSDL", "assay": "cell-based", "parameters": "host or cells: SK-N-SH human neuroblastoma cells", "conditions": "for IC50: mean ± SEM (n = 3), read-out: Anticholinesterase (using neuroblastoma cell) IC50 (converted); for inhibition at 100 µg/mL: read-out: Anticholinesterase (using neuroblastoma cell) % inhibition (at 100 µg/mL), 100 µg/mL, mean ± SEM (n = 3)", "method": "The human neuroblastoma cell line SK-N-SH was purchased from the American Type Culture Collection (Manassas, VA, USA). The SK-N-SH cells were cultured in minimum essential medium from Gibco (California, USA), supplemented with 10% heat inactivated FBS, 2% supplementary amino acid solution, and 1% Glutamax (Gibco, California, USA), 1% penicillin/streptomycin. Incubation was carried out at 37°C in a humidified atmosphere of 5% CO2-95% […] atmosphere. Cells were seeded into 96-well microplates (Nunc, Roskilde, Denmark) at a density of 1 × 10^5 cells/mL (100 μL in each well). Experiments were carried out after 24 h of seeding.\nOne of the important neuronal properties of SK-N-SH cells is the synthesis of neurotransmitter enzymes. The inhibition activity of samples on this cell line was investigated by the modified Ellman's colorimetric method. The condition was slightly modified to enable the cellular enzyme to work properly. Briefly, 25 μL of sample dissolved in buffer containing 50% methanol, 100 μL of 3 mM DTNB in buffer containing 0.1 M NaCl and 0.02 M MgCl2·2H2O, and 25 μL of 15 mM ATCI in deionized water were added to the well containing 100 μL of the cells. The absorbance at 405 nm was measured by a microplate reader (TECAN M200, Switzerland). All assays were done in triplicate."}, "[5]": {"system": "P19-derived neurons", "assay": "Neuroprotective activity against oxidative stress induced by serum deprivation (XTT)", "format": "cell-based, Murine", "conditions": "1 nM, 24 h", "experimental": "Murine P19 embryonic carcinoma cells were purchased from American Type Culture Collection (ATCC), USA. P19 cells were cultured as described by Mcburney [24, 25] in a slightly modification [26, 27]. In brief, the undifferentiated P19 cells were cultured as monolayers in α-MEM with 7.5% NCS, 2.5% FBS, and 1% antibiotics-antimycotic solution in a 25-cm^2 tissue culture flask, incubated at 37°C in a humidified atmosphere of 5% CO2. Cells in monolayer cultures were maintained in exponential growth phase by subculturing every 2 days until use.\nThe blank control was cultured in α-MEM supplemented with 10% FBS and 10 μM Ara-C. The cell survival ability was measured using the XTT method."}, "[6]": {"assay": "in vitro", "format": "cell-based", "conditions": "mouse", "experimental": "The exponentially grown cultures indicated the cells density by trypan blue exclusion assay. Then, neuronal differentiation was induced by seeding 2 × 10^6 cells/mL cell in a 100 mm bacteriological grade culture dish containing 10 mL α-MEM supplemented with 5% FBS, 1% antibiotics-antimycotic solution, and 0.5 μM RA. […] After 4 days of RA treatment, aggregates were dissociated with trypsin, washed, resuspended on poly-L-lysine-precoated 96-well plates (plates were previously coated with 50 μg/mL poly-L-lysine dissolved in PBS for overnight and sterilized under UV light for 30 min) at a cell density of 7 × 10^4 cells/mL (150 μL/well) in α-MEM supplemented with 10% FBS and 1% antibiotics-antimycotic solution, and incubated for 24 h. Ara-C (10 μM) was added at day one after plating to inhibit the proliferation of nonneuronal cells. […]\nThe procedure was carried out on P19-derived neurons cultured in a 96-well plate [29]. […] The data were expressed as the mean ± SEM (n = 3), with the medium as a control representing 100% cell viability."}},
  "data": [
    {"smiles": "Cc1c(C)c2c(c(C)c1O)CCC(C)(C(=O)O)O2", "note": "(centres unmarked) [Trolox, reference compound]", "values": [
      {"measurement": "Antioxidant IC50 (radical scavenging activity)", "setting": "[1]", "value": "12.54 ± 0.89", "unit": "µg/mL"}
    ]},
    {"smiles": "COC1=C2C[C@@H](C)C[C@H](OC)[C@H](O)[C@@H](C)/C=C(\\C)[C@H](OC(N)=O)[C@@H](OC)/C=C\\C=C(/C)C(=O)NC(=CC1=O)C2=O", "note": "[geldanamycin, Geldanamycin, reference compound]", "values": [
      {"measurement": "Amount of neurites", "setting": "[2]", "value": "2.03 ± 1.30"}
    ]},
    {"smiles": "O=C1O[C@H]([C@@H](O)CO)C(O)=C1O", "note": "[Ascorbic acid, reference compound]", "values": [
      {"measurement": "Antioxidant IC50 (radical scavenging activity)", "setting": "[1]", "value": "10.52 ± 0.48", "unit": "µg/mL"}
    ]},
    {"smiles": "O=C(O)c1cc(O)c(O)c(O)c1", "note": "[Gallic acid]", "values": [
      {"measurement": "Antioxidant % inhibition (at 100 µg/mL)", "setting": "[1]", "value": "94.76 ± 0.51", "unit": "%"},
      {"measurement": "Antioxidant IC50 (radical scavenging activity)", "setting": "[1]", "value": "4.83 ± 0.02", "unit": "µg/mL"},
      {"measurement": "IC50", "setting": "[3]; read-out: Anticholinesterase (using purified enzyme from E. electricus) IC50 (converted)", "value": 74.8, "unit": "µM"},
      {"measurement": "inhibition at 100 µg/mL", "setting": "[3]", "value": "73.64 ± 0.06", "unit": "%"},
      {"measurement": "IC50", "setting": "[4]", "value": 16.4, "unit": "µM"},
      {"measurement": "inhibition at 100 µg/mL", "setting": "[4]", "value": "90.7 ± 2.66", "unit": "%"}
    ]},
    {"smiles": "O=c1c(O)c(-c2ccc(O)c(O)c2)oc2cc(O)cc(O)c12", "note": "[Quercetin, 3,3′,4′,5,7-pentahydroxyflavone]", "values": [
      {"measurement": "Cell survival in serum-supplemented culture", "setting": "[5]; compared to the control (P19SM)", "value": 128.01, "unit": "%"},
      {"measurement": "Cell survival in serum-deprived culture", "setting": "[5]; serum-free α-MEM, serum deprivation alone 31.16%", "value": 88.29, "unit": "%"},
      {"measurement": "IC50 at 18 h", "setting": "[6]", "value": "> 10", "unit": "µM"},
      {"measurement": "viability at 24 h, 0.001 µM", "setting": "[6]; 1 nM, 24 h treatment, relative to control (100%), read-out: % cell viability of cultured neurons", "value": "> 100", "unit": "%"},
      {"measurement": "Antioxidant % inhibition (at 100 µg/mL)", "setting": "[1]", "value": "92.61 ± 0.99", "unit": "%"},
      {"measurement": "IC50", "setting": "[1]; converted to molar, read-out: Antioxidant activity IC50 in micromolar range", "value": 9.4, "unit": "µM"},
      {"measurement": "Antioxidant IC50 (radical scavenging activity)", "setting": "[1]", "value": "3.18 ± 0.07", "unit": "µg/mL"},
      {"measurement": "Neurite length", "setting": "[2]", "value": "139.00 ± 108.80", "unit": "μm"},
      {"measurement": "inhibition at 100 µg/mL", "setting": "[3]", "value": "80.9 ± 2.52", "unit": "%"},
      {"measurement": "IC50", "setting": "[4]", "value": 121, "unit": "µM"},
      {"measurement": "inhibition at 100 µg/mL", "setting": "[4]", "value": "82 ± 3.34", "unit": "%"}
    ]}
  ]
}
